Five sequences from article doi:10.1101/2025.08.19.670962, “Structural basis for binding of RILPL1 to TMEM55B reveals a lysosomal platform for adaptor assembly through a conserved TBM motif” (bioRxiv, 2025) can be followed below.

Entries after “also recorded” stand apart in the source; their conditions may differ.

The subject of experiment [1] is WT TMEM55B region 80-166. The experiment can be described thus: In vitro pulldown of untagged TMEM55B with His-tagged bait peptides. The format is binding. To be noted: 10 μM bait, 10 μM prey, Ni2+-agarose, 20 mM Tris pH 8.0, 300 mM NaCl, 20 mM imidazole, 15 minutes; SDS-PAGE, Coomassie; qualitative. The text has this: (§1) Figure 5: In vitro pulldowns of TMEM55B with TBM peptides. (A) Domain organization of TMEM55B interactors depicting the sequence context of the TBM. Regions that are α-helical have been drawn as cylinders; α/βfolds are shown as rectangles; and unstructured segments are zigzag lines. (B) Cartoon depiction of the in vitro pulldown strategy using His-tagged peptides. […] As a control, the R151E variant of TMEM55B was used, which abolishes the interactions with RILPL1 (bottom panel). […] Protein/peptide concentrations were 10μM (see Methods) and visualization was enabled by Coomassie Brilliant Blue G250.
(§2) Given that the TBMs reside in flexible regions of the adaptor proteins (Figure 5A), peptides should be able to mimic their interactions with TMEM55B. Peptides corresponding to the potential TBMs were synthesized with an N-terminal hexahistidine tag to enable in vitro pulldowns of TMEM55B (80-166; Figure 5B). Slightly extended peptides beyond the minimal TBMs were generated to preclude any structural or conformational restrictions on the interaction with TMEM55B. The peptide TBM from RILPL1 was used as a positive control, and the mutant R151E™ of TMEM55B provided a negative control. Peptides run on conventional SDS-PAGE gels are generally not visible in this assay.
In vitro pulldowns were conducted using hexahistidine tagged peptides of interacting proteins as bait, as described in dx.doi.org/10.17504/protocols.io.dm6gpqk91lzp/v2. If not stated otherwise 10μM of bait peptide or the hexahistidine tagged PH domain of OCRL was mixed with 10μM of prey TMEM55B80-166 or TMEM55B80-160 in 1.5 mL centrifuge tubes with 25 μl Ni^2+-agarose resin in a final volume of 1ml of binding buffer (20 mM Tris pH 8.0, 300 mM NaCl, 20mM Imidazole, 10 mM β-mercapotoethanol). The reaction mixture was subjected to gentle shaking for 15 minutes. The resin was collected by gentle centrifugation (1,000 rpm) and washed 3 times with 1 ml of the binding buffer. Following release of proteins from the resin with 50μl elution buffer (20 mM Tris-Cl pH 8.0, 300 mM NaCl, 200mM imidazole), samples were subjected to SDS-PAGE and stained with Coomassie Brilliant Blue[26].

Experiment [2] relates to R151E variant of TMEM55B. In words: In vitro pulldown of TMEM55B R151E variant with His-tagged bait peptides (negative control). The class given is binding. To be noted: 10 μM bait, 10 μM prey, Ni2+-agarose, 20 mM Tris pH 8.0, 300 mM NaCl, 20 mM imidazole, SDS-PAGE, Coomassie, qualitative.
From the text: as §1
as §2, with “assay. […]” for “assay.”

Take “HHHHHHGSDDLEQATEALDS [WDR81, His-tagged WDR81 657-668 TBM peptide used as pulldown bait]”: in experiment [1], the “pulldown of untagged WT TMEM55B (80-166) by His-tagged bait” value (shortened to “pulldown of untagged WT TMEM55B”) was “interact with TMEM55B”.
Consider “HHHHHHGSGYTEQGQEALQHL [His-tagged RILPL1 peptide, RILPL1 391-403 TBM peptide with N-terminal hexahistidine tag; direct pulldown, ITC]”, for which the “pulldown of R151E variant of TMEM55B by His-tagged bait” value in experiment [2] is on record as “abolished”. Also, the “pulldown of untagged WT TMEM55B” value in experiment [1] was “clear band”.
On to “HHHHHHGSTAEEATEATEG [JIP4, His-tagged JIP4 887-897 TBM peptide used as pulldown bait]”, for which the “pulldown of untagged WT TMEM55B” value in experiment [1] was “interact with TMEM55B”.
On the same count and under the same terms, the same measure for “HHHHHHGSVQEAEETLLID [OCRL, His-tagged peptide corresponding to the TBM of OCRL, residues 65-75]”: “failed to pulldown TMEM55B; also recorded: did not significantly interact”; for “HHHHHHSQSTEEATEATEVPD [JIP3, His-tagged JIP3 889-903 TBM peptide used as pulldown bait]”: “interact with TMEM55B”.
